Measured values reported in article PMC3951440, “Assessing Specific Oligonucleotides and Small Molecule Antibiotics for the Ability to Inhibit the CRD-BP-CD44 RNA Interaction” (PLoS ONE, 2014).

What was measured:
FLAG-CRD-BP = test: Western blot of FLAG-CRD-BP in antibiotic-treated HeLa cells; type: cell-based, human; conditions: 750 μM; for expression of FLAG-CRD-BP in total cell lysates: compared to untreated cells; for level of immuno-precipitated FLAG-CRD-BP: compared with non-treated cells
Method: HeLa cells transfected with pcDNA-FLAG or pcDNA-FLAG-CRD-BP in a 100 mm dish were lysed with 1 mL Total Cell Lysis (TCL) buffer (50 mM Tris-Cl pH 7.4, 150 mM NaCl, 1 mM EDTA, 0.1% Triton X-100) supplemented with 1 mM vanadyl ribonucleoside, 0.5 mM DTT, 0.05 units RNasin, and protease inhibitor tablet (Roche Diagnostics, Laval, Quebec). After 5 minutes on ice, lysed cells were aspirated using a 26 gauge needle five times to break the nuclei. After a 30-minute incubation on ice, the cell lysate was spun down at 14,000 rpm for 10 minutes. The collected supernatant was subjected to pre-clearing by incubating with 50 μL equilibrated-protein-G agarose beads (50% slurry) at 4°C for at least 1 hour. The resin was spun down at 3000xg for 1 minute and the lysate was collected. The pre-clearing step was repeated once after which the pre-cleared lysate was added to 5 μL anti-FLAG antibody (#F1804, Sigma-Aldrich, Oakville, Ontario) and mixed overnight at 4°C. Protein G-agarose beads were then added to the antibody-lysate mixture and mixed for 4 hours at 4°C to capture the anti-FLAG antibody. The agarose beads were then washed four times with TCL buffer followed by five washes with TCL buffer containing 1 M urea. Following the 4th wash with TCL buffer containing urea, 50% of the agarose beads were collected and spun down at 3000xg for 1 minute followed by resuspension in 16 μL of ddH2O for Western blot analysis. The remaining 50% of the agarose beads were subjected to a final wash followed by resuspension in 100 μL TCL buffer containing 0.3 mg/mL proteinase K and 0.1% SDS and incubated at 50°C for 30 minutes. Following incubation, RNAs physically associated with the resin were extracted by the phenol-chloroform-isoamyl alcohol method and quantified using a Nanodrop Spectrometer (Wilmington, Delaware). One μg of RNA from each sample group was treated with DNase (DNA-free kit, Ambion) before cDNA synthesis and qPCR as described above.
Protein samples were separated in a 12.5% polyacrylamide/SDS Lammeli gel system, transferred to a nitrocellulose membrane, and incubated against anti-FLAG (#200472-21, Stratagene, La Jolla, California), IMP1 polyclonal antibody (MBL, Nagoya, Japan), and β–actin (#A5441, Sigma-Aldrich) antibody. PageRuler Plus Prestained Protein Ladder (Thermo Fisher Scientific, Rockford, Illinois) was used to approximate the molecular weight of FLAG-CRD-BP, endogenous CRD-BP, and β–actin bands.

HeLa cells = test: Tolerance of HeLa cells to antibiotics by light microscopy; type: cell-based, human; conditions: up to 1000 μM, unpublished observation

Compound	expression of FLAG-CRD-BP in total cell lysates (FLAG-CRD-BP)	level of immuno-precipitated FLAG-CRD-BP (FLAG-CRD-BP)	morphological abnormalities of HeLa cells (HeLa cells)
CCC[C@@H]1C[C@@H](C(=O)N[C@@H]([C@H]2O[C@H](SC)[C@H](O)[C@@H](O)[C@H]2O)[C@@H](C)O)N(C)C1 [Lincomycin]	significantly decreased	significantly reduced	did not see any obvious morphological abnormalities
Neomycin	significantly decreased	significantly reduced	did not see any obvious morphological abnormalities
